Measurements taken from US8268635B2, “Methods of identifying agents that selectively activate p38 and/or NKkB signaling” (priority 2006, dated 2012).
Where no end group is shown, it is not given here.

Key:
[1] = test system: GCKR/GLK; experiment: GCKR/GLK activity in adherent neutrophils; type: cell-based, human; details: plasma-coated dishes; 15 min; TNF 1000 U/ml, TNF70-80 10 μM
Description: GCKR was immunoprecipitated from cell lysates and activity assayed using myelin basic protein (MBP) as the substrate. […] Activation of ASK-1 was determined by kinase autophosphorylation.
KHS (hereon referred to as “GCKR”) activity was assayed as described previously using myelin basic protein as a substrate (Shi, C. S., Leonardi, A., Kyriakis, J., Siebenlist, U., and Kerhl, J. H. (1999) J. Immunol. 163: 3279-3285). ASK-1 activation was determined in immunoprecipitates of ASK-1 by autophosphorylation (Kyriakis, J. M., and Auruch, J. (2001) Physiol. Rev. 81: 807-869). p38 and ERK activities were determined as described using myelin basic protein as a substrate (Hii, C. S., Huang, Z. H., Bilney, A., Costabile, M., Murray, A. W., Rathjen, D. A., Der, C. J., and Ferrante, A. (1998) J. Biol. Chem. 273: 19277-19282). […] A solid phase assay using glutathione-S-transferase (GST)-conjugated-jun (1-79) was employed to assay JNK activity (Hii, C. S., Huang, Z. H., Bilney, A., Costabile, M., Murray, A. W., Rathjen, D. A., Der, C. J., and Ferrante, A. (1998) J. Biol. Chem. 273: 19277-19282). Phosphorylated ASK-1, myelin basic protein and GST-jun (1-79) were fractionated on 8, 16 and 12% SDS polyacrylamide gels, respectively, and the bands were detected and radioactivity determined using an Instant Imager (Packard Instruments, Canberra, Australia).

[2] = test system: E-selectin; experiment: E-selectin expression on endothelial cells; type: cell-based, human; details: TNF 100 or 1000 U/ml, TNF70-80 1-50 μM; data not presented

PSTHVLITHTI-OH [TNF70-80]
GCKR/GLK activity in adherent neutrophils [1]: poor at stimulating GCKR/GLK activity | expression of E-selectin on endothelial cells [2]: but not TNF70-80 (1-50 μM) stimulated the expression of E-selectin
